# Source: US20050182020A1, “Ceramide de novo synthesis-based therapeutic and prophylactic methods, and related articles of manufacture” (priority 2003, published 2005)
# Tests used:
# [1] = system: HSN1 cells (4561); experiment: Cholesterol / cholesterylester synthesis from 3H-mevalonate in HSN1 cells; type: cell-based, human
# Method: (§1) FIG. 12. Increased free cholesterol synthesis in HSN cells. In order to investigate whether increased SRE-mediated gene transcription also results in increased cholesterol synthesis cells were incubated with radioactive mevalonate, a precursor which represents a committed step in cholesterol synthesis (see FIG. 11). Control and HSN1 cells were incubated for 7 h and 18 h in the presence of trace amounts of ^3H-mevalonate. Lipids were extracted and separated by thin […] chromatography (TLC). Radioactive counts in the cholesterol fraction were analyzed by liquid scintillation counting.
# FIG. 14. Oleic acid increases HSN 4561 synthesis of high levels of free cholesterol but not cholesteryl ester. Cells were incubated for 4 h with ^3H-mevalonate and grown in the presence or absence of 0.3 mM oleic acid.
# (§2) FIG. 16. Incubation with mevastatin decreases free cholesterol synthesis in HSN cells as well as in controls. Cells were treated for 16 h in the presence of ^3H-mevalonate to assess cholesterol de novo synthesis and several inhibitors of either cholesterol or ceramide synthesis (Mevastatin=Statin), C6 ceramide (previously shown by us to decreased SREBP levels and SRE-mediated gene transcription), cycloserine (inhibitor of serine-palmiltoyl transferase), cholesterol (classical inhibitor of de novo synthesis by negative feedback).
# [2] = system: HSN1 lymphoblasts (HSN 4561); experiment: SRE-promoter reporter (adenovirus transfection) in HSN1 lymphoblasts; type: cell-based, human; settings: 7 h
# Method: (§3) FIG. 10. Increased SRE-mediated gene transcription in HSN1 cells (HSN 4561). Cells were transfected with an SRE-element containing promoter-reporter gene. This construct is identical to the promoter-reporter gene used in all previous studies. In order to achieve transfection in lymphoblasts, this promoter construct was subcloned into an adenovirus vector. Cells (control lymphoblasts and HSN1 lymphoblasts) were transfected for 3 h with this adenovirus vector and left in growth medium overnight. Medium was then switched to experimental medium containing 1% fatty acid free BSA (control conditions) or cholesterol/25-OH cholesterol (10 ug/ml/1 ug/ml) or oleic acid. After 7 h the luciferase activity which reflects binding of SREBP to the SRE-promoter element was measured. Because adenovirus mediated transfections are transient transfections the necessity for a transfection control arises. The adenovirus vector contains a β-gal control gene that is not regulated by experimental conditions and serves as a transfection control (standard practice).
# [3] = system: control lymphoblasts (HSN 4513); experiment: SRE-promoter reporter (adenovirus transfection) in control lymphoblasts; type: cell-based, human; settings: oleic acid, 7 h
# Method: as §3
# [4] = system: Niemann Pick Disease Type A fibroblasts; experiment: Ceramide de novo synthesis (3H-serine) in NPA fibroblasts; type: cell-based; settings: overnight incubation with agent, vs 1% BSA
# Method: FIG. 19. Ceramide synthesis is increased in NPA fibroblasts. Fibroblasts from different control individuals and from two different cell lines derived from Niemann Pick Disease Type A were incubated for 4 h in the presence of ^3H-serine to measure de novo ceramide synthesis after having been incubated overnight in either control medium (1% BSA) or in the presence of cholesterol or C8-Ceramide. Lipid extraction and separation were carried out.
# [5] = system: SRE-mediated gene transcription; experiment: SRE-promoter luciferase reporter gene assay in LY-B cells (CHO cells mutated in LCB1 subunit of serine-palmitoyl transferase); type: cell-based, Chinese hamster; settings: cholesterol 10 μg/ml and 25-OH cholesterol 1 μg/ml, 16 h
# Method: (§4) FIG. 5. LY-B cells fail to recover SRE-mediated gene transcription in cholesterol depletion but recover SRE-mediated gene transcription in the presence of DMS. […] Both cell lines have been transfected to stably express an SRE-promoter construct linked to the luciferase reporter gene. On day 2, cells were incubated for 16 h with 1% BSA (control) or in the presence of cholesterol (10 μg/ml) and 25-OH cholesterol (1 μg/ml) to decrease SRE-mediated gene transcription. Then, incubation medium was switched to 1% BSA or DMS (5 μM) for 6 h. After cell lysis, luciferase activity was analyzed, expressed as a ratio of protein content. Data represent the average (±S.D.) of at least 4 different experiments, each performed in triplicate.
# Enzyme assays: Cells to be analyzed for luciferase activity were lyzed in lysis buffer A containing 0.1% Triton X-100, 50 mM Hepes, 10 mM MgSO4, pH 7.7. Cells were scraped, collected, vortexed and briefly centrifuged to pellet cell debris. An aliquot was used to measure luciferase activities in a luminometer (Berthold LB 9501, Wallac Inc., Gaithersburg, Md.) with a luciferin reagent from Promega (Madison, Wis.). Luciferase activity in relative light units (RLU) was divided by protein content (mg/ml) for each extract. […]
# [6] = system: NPA fibroblasts; experiment: SRE-promoter reporter (adenoviral transfection) in NPA fibroblasts; type: cell-based; settings: addition of cholesterol; reversible on switch to BSA
# Method: FIG. 20. SRE-mediated gene transcription is increased in NPA fibroblasts. The hypothesis was evaluated that increased ceramide de novo synthesis affects SREBP and SRE-mediated gene transcription in Niemann Pick Type A cells. Cells were transfected with an SRE-promoter construct (using adenoviral transfection as above in HSN cells). […] Addition of cholesterol decreases SRE-mediated gene transcription and this process is also reversible.
# [7] = rats fed toxic levels, 20 week study (ref. 8); cited from earlier work
# [8] = system: SRE-mediated gene transcription; experiment: SRE-promoter luciferase reporter gene assay in stably transfected CHO cells; type: cell-based, Chinese hamster; settings: for SRE-mediated gene transcription (luciferase RLU/protein): myriocin 1 μM, cycloserine 500 mM, fumonisin B1 10 μM, PPMP 20 μM, NB-DNJ 40 μM, cholesterol/25-OH cholesterol 10/1 μg/ml, vs 1% BSA
# Method: FIG. 3. Inhibition of ceramide synthesis and SRE-mediated gene transcription. (A) Decreased ceramide synthesis correlates with decreased levels of SRE-mediated gene transcription and mSREBP. […] After cell lysis, luciferase activity was analyzed, and expressed as a ratio of protein content. Data represent the average (±S.D.) of at least 4 different experiments, each performed in triplicate. […] CHO cells stably transfected with an SRE-promoter construct linked to the luciferase reporter gene were incubated for 8 h in the presence of control conditions (1% BSA) or increasing levels of myriocin (0.25-1 μM). After cell lysis, luciferase activity was analyzed, expressed as a ratio of protein content. Data represent the average (±S.D.) of at least 3 different experiments, each performed in triplicate.
# FIG. 4. Increased ceramide synthesis and SRE-mediated gene transcription. (A) Increased ceramide de novo synthesis correlates with increased SRE-mediated gene transcription. On day 1, CHO cells stably transfected with an SRE-promoter construct linked to the luciferase reporter gene were plated at 80% confluency. […] Cells were harvested, lysed and analyzed for luciferase activity (measured in relative light units, RLU) and protein content. Data are expressed as percentage of control and represent the average (±S.D.) of three different experiments, each performed in triplicate. Inset: Western blot analysis: On day 1, CHO cells were plated in regular growth medium. On day 2, cells were incubated for 8 h with control medium (1% BSA) or DMS (5 μM). Whole cell extracts (30 μg protein) were loaded on a 4-14% continuous gradient SDS-PAGE gel. P and M denote the precursor (125 kd) and mature (68 kd) form of SREBP-1 in a representative experiment. (B) DMS increases ceramide de novo synthesis. CHO cells were treated for 3.5 h either with control conditions (1% BSA) or DMS (2.5-5 μM). […] Data are expressed as dpm/protein and represent a typical experiment.
# as §4
# Cell culture and stable transfections: Cells were grown in F12-nutrient mixture medium containing 10% fetal bovine serum (FBS), 1% glutamine (v/v), 1% penicillin/streptomycin (v/v), and 10% fetal bovine serum (v/v) at 37° C. in humidified CO2 (5%). To obtain stable transfectants, cells were plated in 12-well plates at 50% confluency and transfected for 5 h in the presence of serum-free Dulbecco's modified Eagle's medium (DMEM) with pSyn SRE (1 μg/well) and pWLNeo (0.25 μg/well) using Lipofectamin (1.5 μl/well). Cells were then incubated for 2 days in growth medium. On day three, neomycin-containing medium (400 μg/ml) was added. Selection for neomycin resistant colonies was continued for three weeks. Pooled clones were analyzed for luciferase expression. Experiments were performed with pooled clones as well as with cells derived from a single clone. Cells were grown in the presence of 400 μg/ml neomycin. For experimental use, cells were plated in the absence of neomycin at least 24 h ahead in regular growth medium.
# Enzyme assays: Cells to be analyzed for luciferase activity were lyzed in lysis buffer A containing 0.1% Triton X-100, 50 mM Hepes, 10 mM MgSO4, pH 7.7. Cells were scraped, collected, vortexed and briefly centrifuged to pellet cell debris. […]
# [9] = several animal studies; cited from earlier work
# [10] = system: control cells (4513); experiment: Cholesterol synthesis from 3H-mevalonate in control lymphoblasts; type: cell-based, human; settings: 16 h
# Method: as §1, §2
# [11] = system: HMG-CoA synthase mRNA; experiment: Northern blot of HMG-CoA synthase mRNA in CHO cells; type: cell-based, Chinese hamster; settings: myriocin 1 μM, 16 h
# [12] = system: cellular sphingomyelin levels; experiment: Cellular sphingomyelin levels (TLC, phosphorus); type: cell-based; settings: within 24 h; data not shown
# Excerpt: An aliquot was used for luciferase and protein determination. […] Lipids were then dried under N2. […] Absolute cpm values range between 400 and 800 cpm. […] In brief, lipids were extracted as above. Lipid extracts were run on TLC.
# What is the role of cellular sphingomyelin levels on SRE-mediated gene transcription? […] LY-B cells have decreased sphingomyelin levels. Yet, SRE-mediated gene transcription is decreased in LY-B cells as well as in myriocin treated cells.
# [13] = system: SREBP; experiment: Fluorescently labeled SREBP in cell culture after addition of DAG; type: cell-based; settings: preliminary data in cell culture
# Method: Data: Propanolol ([…]) inhibits SRE-mediated gene transcription to 40% (+3%) within 30 min. Resvaratrol ([…]) inhibits SRE-mediated gene transcription to 7% (±16%) within 4 h.
# Preliminary data: Inhibition of PAP by propanolol or inhibition of PKD by resvaratrol both decrease SRE-mediated gene transcription. Addition of a DAG analogue that is exogenously added and thus distributes to membranes other than the Golgi results in reorientation of fluorescently labeled mature SREBP.
molecule,measurement,setting,value
CCCCCCCC/C=C\CCCCCCCC(=O)O [Oleic acid],synthesis of cholesterol from 3H-mevalonate,"[1]; HSN 4561, 0.3 mM oleic acid, 4 h",stimulates
same,SRE-mediated gene transcription (luciferase/β-gal) in HSN 1 (4561),[2]; oleic acid,does not decrease
same,SRE-mediated gene transcription (luciferase/β-gal) in controls,[3],does not decrease
CC(C)CCC[C@@H](C)[C@H]1CC[C@H]2[C@@H]3CC=C4C[C@@H](O)CC[C@]4(C)[C@H]3CC[C@]12C [cholesterol],sensitivity of cholesterol de novo synthesis in HSN1 cells (4561) relative to control cells,"[1]; 16 h, 3H-mevalonate",more sensitive
same,"ceramide de novo synthesis (3H-serine, 4 h)",[4],does not significantly decrease
same,decrease of SRE-mediated gene transcription in LY-B cells compared to control cells,[5],significantly stronger
same,SRE-mediated gene transcription (luciferase/β-gal) in HSN 1 (4561),[2]; cholesterol/25-OH cholesterol 10/1 ug/ml,very efficient in decreasing
same,SRE-mediated gene transcription,[6],decreases
CCCC[C@@H](C)[C@@H](OC(=O)C[C@@H](CC(=O)O)C(=O)O)[C@H](C[C@@H](C)C[C@H](O)CCCC[C@@H](O)C[C@H](O)[C@H](C)N)OC(=O)C[C@@H](CC(=O)O)C(=O)O [fumonisin B1],plasma cholesterol levels,[7],significantly decreased
same,SRE-mediated gene transcription (luciferase RLU/protein),[8]; 8 h,significantly reduced
same,hepatotoxicity,[9],hepatotoxicity
CC[C@H](C)C(=O)O[C@H]1CCC=C2C=C[C@H](C)[C@H](CC[C@@H]3C[C@@H](O)CC(=O)O3)[C@H]21 [mevastatin],free cholesterol synthesis in controls,[10],decreases
same,free cholesterol synthesis in HSN cells,"[1]; 16 h, 3H-mevalonate",decreases
CCCCCCC(=O)CCCCCC/C=C/C[C@@H](O)[C@H](O)[C@@](N)(CO)C(=O)O [myriocin],HMG-CoA synthase mRNA levels relative to control,[11],half
same,SRE-mediated gene transcription (luciferase RLU/protein),[8]; 8 h,significantly reduced
same,expression of another control β-gal reporter gene,[8]; data not shown,did not decrease
same,"SRE-mediated gene transcription, dose dependence","[8]; myriocin 0.25-1 μM, 8 h",dose-dependently decreases
same,cellular sphingomyelin levels,[12],does not change
diacylglycerol [DAG],effect on fluorescently labeled SREBP,[13],attracts fluorescently labeled SREBP
